Values quoted from earlier work as cited in patent US5439687A, “Dosage forms having zero-order dihydropyridine calcium antagonist release” (priority 1992, dated 1995).

Details: rapid influx rate with high plasma level peaks

SMILES: COC(=O)C1=C(C)NC(C)=C(C(=O)OC)C1c1ccccc1[N+](=O)[O-] [nifedipine]
- Side-effect rate and blood pressure lowering effectiveness: associated with an increased side-effect rate (tachycardia) and reduced effectiveness in lowering blood pressure
